Data published in ChEMBL document CHEMBL1154471, “Lanostane-type triterpenoids from the sclerotia of Inonotus obliquus possessing anti-tumor promoting activity” (Eur J Med Chem, 2008).

Key:
[1] = tested on: Raji; assay: Inhibition of TPA-induced EBV-early antigen activation in human Raji cells assessed as EA activation at 10 molar ratio […] relative to TPA; format: cell-based; design: scale not given: the % may be the effect or the level left; settings: human gammaherpesvirus 4
[2] = Inhibition of TPA-induced EBV-early antigen activation in human Raji cells assessed as EA activation; format: cell-based, human gammaherpesvirus 4
[3] = tested on: Raji; assay: Inhibition of TPA-induced EBV-early antigen activation in human Raji cells assessed as EA activation at 100 molar ratio […] relative to TPA; format: cell-based; design: scale not given: the % may be the effect or the level left; settings: human gammaherpesvirus 4
[4] = tested on: Raji; assay: Inhibition of TPA-induced EBV-early antigen activation in human Raji cells assessed as EA activation at 1000 molar ratio after 48 hrs relative to TPA; format: cell-based; design: scale not given: the % may be the effect or the level left; settings: human gammaherpesvirus 4
[5] = Cytotoxicity against human Raji cells assessed as cell viability at 1000 molar ratio by trypan blue staining relative to control; format: cell-based; settings: read-out: Activity
[6] = tested on: Raji; assay: Inhibition of TPA-induced EBV-early antigen activation in human Raji cells assessed as EA activation at 500 molar ratio after 48 hrs relative to TPA; format: cell-based; design: scale not given: the % may be the effect or the level left; settings: human gammaherpesvirus 4
[7] = tested on: Mus musculus; assay: Inhibition of DMBA-induced/TPA-promoted carcinogenesis in mouse assessed as number of mouse bearing papillomas at 85 nmol administered twice weekly after 1 week of initiation for 20 weeks; format: functional; design: scale not given: the % may be the effect or the level left
[8] = tested on: Mus musculus; assay: Inhibition of DMBA-induced/TPA-promoted carcinogenesis in mouse assessed as number of skin papillomas per mouse at 85 nmol administered twice weekly after 1 week of initiation for 11 weeks; format: functional
[9] = tested on: Mus musculus; assay: Inhibition of DMBA-induced/TPA-promoted carcinogenesis in mouse assessed as number of skin papillomas per mouse at 85 nmol administered twice weekly after 1 week of initiation for 20 weeks; format: functional
[10] = tested on: Mus musculus; assay: Inhibition of DMBA-induced/TPA-promoted carcinogenesis in mouse assessed as number of mouse bearing papillomas at 85 nmol administered twice weekly after 1 week of initiation for 11 weeks; format: functional; design: scale not given: the % may be the effect or the level left

Row | SMILES | IC50 [2] [molar ratio] | Activity [1] [%] | Activity [3] [%] | Activity [4] [%] | viability at 1000 molar ratio [5] [%] | Activity [6] [%] | Activity [7] [%] | Activity [8] | Activity [9] | Activity [10] [%]
1 | CC(C)=CCC[C@@H](C=O)[C@H]1CC[C@@]2(C)C3=C(CC[C@]12C)[C@@]1(C)CC[C@H](O)C(C)(C)[C@@H]1CC3 | 232 | 90.4 | 64 | 0 | 70 | 35.1 | 73.3 | 1.2 | 3.8 | 33.3
2 | CC(C)=CCC[C@@H](CO)[C@H]1CC[C@@]2(C)C3=C(CC[C@]12C)[C@@]1(C)CC[C@H](O)C(C)(C)[C@@H]1CC3 | 392 | 100 | 77.5 | 10.9 | 70 | 47.1 | – | – | – | –
3 | CC1(C)CC[C@]2(C(=O)O)CC[C@]3(C)C(=CC[C@@H]4[C@@]5(C)CC[C@H](O)C(C)(C)[C@@H]5CC[C@]43C)[C@@H]2C1 [OLEANOLIC_ACID] | 389 | 100 | 80 | 12.7 | – | 30 | – | – | – | –

The next lines start with results.

Row | IC50 [2] [molar ratio] | SMILES | Activity [1] [%] | Activity [3] [%] | Activity [4] [%] | viability at 1000 molar ratio [5] [%] | Activity [6] [%] | Activity [7] [%] | Activity [8] | Activity [9] | Activity [10] [%]
4 | 231 | C[C@H]([C@H](O)/C=C/C(C)(C)O)[C@H]1CC[C@@]2(C)C3=C(CC[C@]12C)[C@@]1(C)CC[C@H](O)C(C)(C)[C@@H]1CC3 | 89.2 | 69.8 | 0 | 70 | 26.9 | – | – | – | –
5 | 228 | C[C@H]([C@H](O)/C=C/C(C)(C)O)[C@H]1CC[C@@]2(C)C3=CC[C@H]4C(C)(C)[C@@H](O)CC[C@]4(C)C3=CC[C@]12C | 88.2 | 67.3 | 0 | 70 | 25.1 | – | – | – | –
